PMC5478869, “New Hydroxycinnamic Acid Esters as Novel 5-Lipoxygenase Inhibitors That Affect Leukotriene Biosynthesis” (Mediators of Inflammation, 2017)

The compounds below were run on arachidonic acid release (assay: Arachidonic acid release from thapsigargin-stimulated PMNL (GC-MS)). Conditions: 1 μM compound, 1 μM thapsigargin 5 min, vs control (0.5% DMSO).
Assay type: cell-based, human
Method: Quantification of arachidonic acid release from cellular membranes was performed as previously described. Briefly, freshly isolated PMNL (10^7 cells/ml, in HBSS containing 1.6 mM CaCl2 and 0.1% BSA) were incubated with adenosine deaminase (0.3 U/ml) and test compounds for 5 min at 37°C. Stimulation was initiated with the addition of 1 μM thapsigargin, followed by incubation at 37°C for 5 min. The reactions were stopped with the addition of two volumes of cold MeOH and 300 ng of arachidonic acid-d8 (Cayman Chemicals) as internal standard. The samples were stored at −20°C overnight and then centrifuged the next day at 1000 g for 10 min. The supernatants were diluted with four volumes of acidified water (0.1%) then processed on an octadecyl (C18) column. Samples were eluted with the addition of 3 ml of MeOH and dried under nitrogen. Pentafluorobenzylesters were prepared with the addition 50 μl N,N-diisopropylethylamine (20% in acetonitrile) and 50 μl of […] (20% in acetonitrile). Samples were heated for 40 min at 40°C, then dried under nitrogen and resuspended in 100 μl of hexane. Samples were quantified by negative ion chemical ionization gas chromatography/mass spectrometry using TraceGC ultra column (Thermo) and a Polaris Q mass spectrometer (Thermo).
Figure 4 The impact of test compounds on the liberation of arachidonic acid in stimulated PMNL. Human PMNL were incubated with test compounds (1 μM) or their diluent (control, DMSO 0.5%) for 5 min. Stimulation was then initiated with the addition of 1 μM thapsigargin, followed by an incubation at 37°C for 5 min. The reactions were stopped with the addition of two volumes of cold MeOH and 300 ng of arachidonic acid-d8, then samples were stored overnight at −20°C. Free arachidonic acid was first extracted on octadecyl columns, then pentafluorobenzylesters of arachidonic acid were prepared and samples were measured on GC-MS. Spontaneous release of AA was also measured in absence of thapsigargin (nonactivated, NA). ^∗Different from control as determined by one-way ANOVA with Dunnett's multiple comparison test (p < 0.05). Data are expressed as means ± SEM of at least 3 independent experiments.

Structure (SMILES) | Inhibition of cellular arachidonic acid release in stimulated PMNL
O=C(/C=C/c1ccc(O)c(O)c1)OCCCc1ccccc1 [Compound 13] | significantly inhibited cellular arachidonic acid release
Cc1ccc(CCOC(=O)/C=C/c2ccc(O)c(O)c2)cc1 [Compound 15] | failed to significantly inhibit the release of cellular membrane arachidonic acid
C=C(C)CCOC(=O)/C=C/c1ccc(O)c(O)c1 [Compound 9] | significantly inhibited cellular arachidonic acid release
COc1ccc(CCOC(=O)/C=C/c2ccc(O)c(O)c2)cc1 [Compound 16] | failed to significantly inhibit the release of cellular membrane arachidonic acid
O=C(/C=C/c1ccc(O)c(O)c1)OCCc1ccc(F)cc1 [Compound 14] | failed to significantly inhibit the release of cellular membrane arachidonic acid
O=C(/C=C/c1ccc(O)c(O)c1)OCC(c1ccccc1)c1ccccc1 [Compound 19] | significantly inhibited cellular arachidonic acid release
O=C(/C=C/c1ccc(O)c(O)c1)OCCc1ccccc1 [CAPE (2), Caffeic acid phenethyl ester, reference compound] | significantly inhibited cellular arachidonic acid release
